The values below come from US5538993A, “Certain tetrahydrocannabinol-7-oic acid derivatives” (priority 1991, dated 1996).

The conditions of data set [1]: previously shown; cited from earlier work.
In data set [2] the test system is mouse hot plate test. The data set can be described thus: Hot plate test for antinociception (55° C.). The format is in vivo. As to conditions: 90 min before test. As to the method: In the hot plate test for analgesia an aluminum surface was maintained at 55±1° C. by circulating water through passages in the metal. A clear plastic cylinder 18 cm in diameter and 26 cm high was placed on the surface to prevent escape. The end point was taken when the mouse either performed a hind paw lick or jumped off the surface; in no case were the animals kept for more than 30 secs on the plate. Mice were never used more than one time; control values were always measured at 11 a.m. and test values at 2 p.m. The drugs were administered orally 90 min before the hot plate test. The percent change in response time (latency) was calculated by comparing the mean of the control values with the mean of the test values and statistical signficance determined by a paired tetest analysis using software (Statview, 512) from Brainpower, Inc., Calabasas, Calif.
(In general: Hot-plate and tail-flick tests time the reaction to a heat stimulus.)

Data set [3] relates to forebrain ischemia. The data set can be described thus: Protection against forebrain ischemia (unilateral occlusion). The following applies: mongolian gerbils, result in words. The format is in vivo. From the text:
(§1) The present compounds are active in several tests generally used to indicate neuroprotection.

In data set [4] the test system is PAF-Induced Paw Edema. Briefly: Inhibition of PAF-induced paw edema. It is filed as in vivo, CD-1 female mice. The following applies: for Inhibition of PAF-Induced Paw Edema: vs vehicle treated controls, 15 min after PAF. As to the method: A second model, in which edema is induced by platelet activating factor (PAF), was used to evaluate activity.
(§2) The conditions were based on those reported previously [Calhoun et al., ibid.]. […] PAF (1.0 μq) or arachidonic acid (1.0 mg) dissolved in 50 μl of 5% ethanol in saline, were injected s.c. into the plantar surface of the right hind paw of CD-1 female mice (20-25 g) obtained from Charles River Labs. The mice were under ether anesthesia during this procedure. The volume of the right foot was measured to the level of the lateral malleotis by water displacement before treatment and 15 min after PAF injection or 30 min after archidonate injection. The change in paw volume was calculated for each mouse and the significance for each group was determined by a paired t test analysis.

Data set [5] relates to Picrotoxin induced lethality. Briefly: Protection against picrotoxin induced lethality. The following applies: drug 10 mg/kg, 120 min before picrotoxin (8 mg/kg). The format is in vivo, Balb/c male mice. As for the experimental part:
as §1
(§3) Balb/c male mice were administered with the drug 90 min before treatment with NMDA (125 mq/kg) or 120 min before picrotoxin (8 mg/kg) in emulsion, s.c. The survival rate shown in Table VI indicates number of survivors out of total number of animals used.

The test system of data set [6] is N-methyl-D-aspartate (NMDA) induced lethality. Briefly: Protection against NMDA induced lethality. The following applies: drug 10 mg/kg, 90 min before NMDA. It is filed as in vivo, Balb/c male mice. As to the method:
as §1, §3

In data set [7] the test system is peritoneal leukocytes. Briefly: Leukocyte adhesion assay (peritoneal cells after oral dosing). The format is in vivo, female CD-1 mice. As to conditions: cells collected 90 min after dosing; for number of adhering cells: ± S.D. As to the method: Leukocytes are thought to be major contributors to the inflammatory response and their ability in this regard is reflected by their adhesiveness to a variety of substrates [Audette, C. A., et al., ibid.] Sci., 47, 753 (1990)].
The details of the leukocytes adhesion assay have been previously reported [Audette et al., ibid.]. In brief, peritoneal cells from female CD-1 mice (20-25 g) were collected at 90 min following oral administration of the drug or vehicle (50 μl peanut oil). Cells from each treatment group (N=3) were pooled and equal numbers aliquoted into six culture dish wells (1.9 cm^2 area). After incubation for 18-20 hours, non-adhering cells were removed and the remaining cell monolayer quantitated by DNA measurement.

Data set [8] deals with Arachidonic Acid-Induced Paw Edema. The data set can be described thus: Inhibition of arachidonic acid-induced paw edema. It is filed as in vivo, CD-1 female mice.
Text: The induction of paw edema in rodents by injection of arachidonic acid has been used as an experimental model for inflammation [Calhoun, W., et al., Agents and Actions, 21, 306 (1987)]. Prior administration of non-steroidalanti-inflammatory drugs (NSAIDs) in many cases leads to a dose related inhibition of the edematous response which may be considered a predictor of clinical efficacy.
as §2

For data set [9], the system named is intraocular pressure. Briefly: Reduction of intraocular pressure (anti-glaucoma). The format is in vivo, rabbits. The following applies: 50 μl drop of a 1% emulsion into rabbit eye. As to the method:
Reduction of intraocular pressure in rabbits was determined by the addition of a 50 μl drop of a 1% emulsion of the cannabinoid into the rabbit eye. This test is a measure of anti-glaucoma activity.

The test system of data set [10] is cataleptic response. Briefly: Cataleptic effects, ring test. The following applies: 5 min test period, ± SD. The format is in vivo, mouse. As for the experimental part: The lack of CNS activity for the compounds described herein may be seen from the data shown in Table V. This was measured by the so-called "ring test" [Pertwee, R. G., et al., J. Pharmacol., 46, 753 (1972)] in which the cataleptic effects of cannabinoids can be quantitated. The compounds produced little or no response when compared with the parent drug.
The cataleptic response was measured using the ring test. Mice were placed on a horizontal wire ring 5.5 cm in diameter, which was attached to a 16 cm vertical rod. The hind paws and fore paws were placed at opposite sides of the ring. It is important that the ambient temperature is maintained at 30° C. and that the environment be free of auditory stimuli and bright lights. The criteria for immobility are detailed by Pertwee. The response is calculated as the fraction of time the mouse is immobile over a 5 min. test period. Measurements were always done between 2 and 4 p.m. and the animals were used only once.

In the case of `CCCCCc1cc(O)c2c(c1)OC(C)(C)[C@@H]1CCC(C(=O)O)=C[C@@H]21` [Compound 2, (3R,4R)-delta-1-tetrahydrocannabinol-7-oic acid], in data set [1], the analgetic activity entry is “analgetic”, the antiinflammatory activity entry is recorded as “antiinflammatory” and the psychotropic effects result was “no psychotropic effects”.
With `CCCCCCC(C)(C)c1cc(O)c2c(c1)OC(C)(C)[C@H]1CC=C(CO)C[C@H]21` [HU-211, 7-hydroxy-delta-6-tetrahydrocannabinoldimethylheptyl, reference compound], in [1], the analgetic activity result was “analgetic”. Besides, the anti-NMDA activity entry in data set [1] is reported as “anti-NMDA”. Further, the antiemetic activity result in data set [1] is “entiemetic”. The “percent change in latency” value in [2] (0.25 mg/kg oral) is listed as 30.0%; in data set [2] (0.50 mg/kg oral), 72.5%; in data set [2] (1.0 mg/kg oral) it was -10.2%. Moreover, the “protection against forebrain ischemia” value in data set [3] is given as “shown to protect against forebrain ischemia”. The “Inhibition of PAF-Induced Paw Edema” value in data set [4] (0.5 mg/kg) worked out at 37.5%; in [4] (1.0 mg/kg) it was 21.9%. Also, the “Survival rate (survivors out of total)” value in [5] is recorded as 6/10; in data set [6], 11/16. The “adhering cells, percent of control” value is 124% of control in data set [7] (0.05 mg/kg oral), 50% of control in [7] (0.10 mg/kg oral), 73% of control in [7] (0.50 mg/kg oral) and 67% of control in data set [7] (1.00 mg/kg oral). In addition, the “number of adhering cells” value in [7] (0.05 mg/kg oral) was 1.09 ± 0.08 number of adhering cells × 10^-6; in data set [7] (0.10 mg/kg oral), 0.44 ± 0.03 number of adhering cells × 10^-6; in data set [7] (0.50 mg/kg oral), 0.64 ± 0.06 number of adhering cells × 10^-6; in data set [7] (1.00 mg/kg oral), 0.59 ± 0.06 number of adhering cells × 10^-6.
Regarding `CCCCCCC(C)(C)c1cc(O)c2c(c1)OC(C)(C)[C@H]1CC=C(C(=O)O)C[C@H]21` [HU-235], in data set [8] (0.050 mg/kg, vs vehicle treated controls, 30 min after arachidonate), the “Inhibition of Arachidonic Acid-Induced Paw Edema” value came to 42.1%. Besides, in [8] (result in words), the “reduction of arachidonic acid paw edema” value is reported as “effective in reducing paw edema”. The “percent change in latency” value in [2] (0.02 mg/kg oral) was determined as 10.3%; in data set [2] (0.05 mg/kg oral), 61.7%; in [2] (0.10 mg/kg oral) it was 49.5%; in [2] (0.25 mg/kg oral), 61.5%; in data set [2] (0.50 mg/kg oral), 61.5%; in [2] (1.0 mg/kg oral), 51.7%. The “percent change in latency” value in data set [2] (2.0 mg/kg oral) is 14.7%. Moreover, in [9], the “reduction of intraocular pressure” value is “Significant reduction”. Also, in data set [3], the “protection against forebrain ischemia” value is given as “shown to protect against forebrain ischemia”. For the same molecule, the “Inhibition of PAF-Induced Paw Edema” value was found to be 44.4% in data set [4] (0.05 mg/kg), 38.7% in data set [4] (0.10 mg/kg), 31.9% in data set [4] (0.25 mg/kg) and 60.1% in [4] (0.5 mg/kg). In addition, the “activity in PAF-induced edema” value in data set [4] (result in words) was “active”. In addition, the “Survival rate (survivors out of total)” value is 8/12 in data set [5] and 7/10 in [6]. Besides, the “cataleptic response (fraction of time immobile)” value in data set [10] (0.25 mg/kg) is given as 12.3 ± 10.3; in data set [10] (0.5 mg/kg), 13.8 ± 7.9; in [10] (1.0 mg/kg), 10.4 ± 10.6; in data set [10] (4.0 mg/kg), 8.7 ± 5.6. Further, the “adhering cells, percent of control” value in data set [7] (0.01 mg/kg oral) was 106% of control; in [7] (0.05 mg/kg oral), 102% of control; in data set [7] (0.10 mg/kg oral), 110% of control; in data set [7] (0.50 mg/kg oral), 116% of control; in data set [7] (1.00 mg/kg oral), 56% of control. For the same molecule, the “number of adhering cells” value in data set [7] (0.01 mg/kg oral) is given as 1.34 ± 0.14 number of adhering cells × 10^-6; in data set [7] (0.05 mg/kg oral) it was 1.29 ± 0.05 number of adhering cells × 10^-6; in [7] (0.10 mg/kg oral), 1.38 ± 0.17 number of adhering cells × 10^-6; in data set [7] (0.50 mg/kg oral), 1.46 ± 0.05 number of adhering cells × 10^-6; in data set [7] (1.00 mg/kg oral), 0.70 ± 0.12 number of adhering cells × 10^-6.
As for `CCCCCc1cc(O)c2c(c1)OC(C)(C)[C@@H]1CCC(C)=C[C@@H]21` [Δ^1 -THC, (3R,4R)-delta-1-tetrahydrocannabinol, reference compound], the “cataleptic response (fraction of time immobile)” value in data set [10] (40 mg/kg) amounted to 48.9 ± 16.
As for `CCCCCc1cc(O)c2c(c1)OC(C)(C)[C@@H]1CC=C(C(=O)O)C[C@@H]21` [Δ^6 -THC-7-oic acid, reference compound], the “Inhibition of PAF-Induced Paw Edema” value in [4] (0.5 mg/kg) is on record as “N.S”; in [4] (1.0 mg/kg), “N.S”; in data set [4] (40.0 mg/kg), 50.2%.
On to THC-7-oic Acid [reference compound], for which, in data set [7] (20 mg/kg oral), the “adhering cells, percent of control” value was 90.6% of control and the “number of adhering cells” value is given as 0.67 ± 0.02 number of adhering cells × 10^-6. Besides, in data set [7] (40 mg/kg oral), the “adhering cells, percent of control” value is 67.9% of control and the “number of adhering cells” value is given as 0.55 ± 0.22 number of adhering cells × 10^-6.
